According to US20100028358A1, “Compositions and Methods for Controlling Tissue Factor Signaling Specificity” (priority 2005, published 2010):
Where two headings read alike, the source gives them in different places. Each block holds one compound with its values, some of them ahead of it. Where a SMILES comes first, the peptide text is derived from it. Bridges are numbered along the chain shown (N, C = ends). [ ]: non-standard residue; d: D form. The star is where a group is joined. Ileψ(thiazoline)Cys = CC[C@H](C)[C@H](N)C1=N[C@H](C(=O)*)CS1; dOrn = NCCC[C@@H](N)C(=O)O

Columns and labels:
[1] = target: tissue factor (TF) coagulant activity (Homo sapiens, UniProt P13726); test: TF coagulant activity (Xa generation) on HaCaT cells; assay type: cell-based
Sequence of tissue factor (TF) coagulant activity (P13726 33-295): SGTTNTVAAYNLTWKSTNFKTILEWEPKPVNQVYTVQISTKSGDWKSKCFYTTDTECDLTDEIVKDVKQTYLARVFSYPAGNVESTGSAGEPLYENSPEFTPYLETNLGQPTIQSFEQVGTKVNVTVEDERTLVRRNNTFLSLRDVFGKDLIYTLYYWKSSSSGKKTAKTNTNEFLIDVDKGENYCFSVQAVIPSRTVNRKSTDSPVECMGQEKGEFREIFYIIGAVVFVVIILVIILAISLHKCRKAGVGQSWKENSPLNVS

PDI association with TF = PDI association with TF (Homo sapiens, UniProt P07237); test: Cell surface MPB/NHS labelling and TF immunoprecipitation (PDI association with TF)
Sequence of PDI association with TF (P07237 18-508): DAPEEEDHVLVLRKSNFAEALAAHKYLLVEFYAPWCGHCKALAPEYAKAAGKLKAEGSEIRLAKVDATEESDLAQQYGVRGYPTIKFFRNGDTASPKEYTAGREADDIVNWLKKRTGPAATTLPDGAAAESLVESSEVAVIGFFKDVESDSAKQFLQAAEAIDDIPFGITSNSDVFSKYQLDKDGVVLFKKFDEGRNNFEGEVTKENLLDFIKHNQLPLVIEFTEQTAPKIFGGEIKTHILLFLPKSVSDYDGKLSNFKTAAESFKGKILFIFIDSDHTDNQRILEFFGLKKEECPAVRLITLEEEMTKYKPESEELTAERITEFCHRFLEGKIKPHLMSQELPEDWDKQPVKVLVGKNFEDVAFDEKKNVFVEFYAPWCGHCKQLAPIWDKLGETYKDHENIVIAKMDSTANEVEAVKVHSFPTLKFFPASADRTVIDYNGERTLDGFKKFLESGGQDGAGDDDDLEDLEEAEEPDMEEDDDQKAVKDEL

TF-PAR2 complex = TF-PAR2 complex (Homo sapiens, UniProt P13726); test: TF-PAR2 complex co-immunoprecipitation from HaCaT cells; assay type: cell-based; settings: Hg2+ pretreatment, high Ca2+ cells
Sequence of TF-PAR2 complex (P13726 33-295, one chain of several): as the sequence (P13726 33-295) above
Text: Additional studies as illustrated in FIG. 7 indicate that TF-VIIa signaling requires TF.PAR2 complex formation. […] Loading controls were not feasible due to background, because no PAR suitable antibody from a different species was available for Western-blotting. […] MPB-labeled cells were immunoprecipitated with MAb-9C3 or MAb-10H10 and probed for PDI, TF or thiol-biotinylation with MPB.

TF-VIIa signaling = TF-VIIa signaling in HaCaT cells (MAP kinase phosphorylation)

Compound: N[C@@H](CCC(=O)N[C@@H](CS)C(=O)NCC(=O)O)C(=O)O [GSH, reduced glutathione]
TF coagulant activity after Hg2+-induced activation and washout [1]: no effect on TF activity

Compound: N[C@@H](CCC(=O)N[C@@H](CSN=O)C(=O)NCC(=O)O)C(=O)O [S-nitrosoglutathione]
TF coagulant activity after Hg2+-induced activation and washout [1]: sufficient to suppress TF coagulant activity

Compound: [Cl][Hg][Cl] [HgCl2]
Concentration required to enhance TF coagulant activity [1]: 50 to 100 µM | HgCl2 activation of coagulation in the presence of bacitracin [1]: did not increase coagulation in the presence of bacitracin | TF coagulant activity in high Ca2+ cells [1]: increased TF coagulant activity substantially | TF coagulant activity in low Ca2+ cells [1]: little effect | Association (co-precipitation) of PDI with TF (PDI association with TF): specifically disrupted the association of PDI with TF | PAR2 complex formation with TF in MAb-5G9 immunoprecipitates (TF-PAR2 complex): abolished PAR2 complex formation with TF

HgCl2 activation of coagulation in the presence of bacitracin ([1]; HgCl2 with bacitracin): reversible inhibitor of HgCl2 activation
Compound: CC[C@H](C)[C@H](N)C1=N[C@H](C(=O)N[C@@H](CC(C)C)C(=O)N[C@H](CCC(=O)O)C(=O)N[C@H](C(=O)N[C@H]2CCCCNC(=O)[C@H](CC(N)=O)NC(=O)[C@@H](CC(=O)O)NC(=O)[C@H](Cc3cnc[nH]3)NC(=O)[C@@H](Cc3ccccc3)NC(=O)[C@H]([C@@H](C)CC)NC(=O)[C@@H](CCCN)NC2=O)[C@@H](C)CC)CS1 [bacitracin] ({Ileψ(thiazoline)Cys}-L[dE]IK[dOrn]I[dF]H[dD]N; lactam 4-C)
TF coagulant activity in high Ca2+ cells ([1]; high Ca2+ HaCaT cells, 100 μM HgCl2 for 2 minutes, bacitracin 3 mM): slightly increased coagulant function of TF | Association (co-precipitation) of PDI with TF (PDI association with TF; high Ca2+ HaCaT cells): prevented the co-precipitation of PDI with TF | TF-VIIa signaling (TF-VIIa signaling; HaCaT cells, 10 nM VIIa): inhibited TF-VIIa signaling

Compound: C[C@@H]1C[C@@H]([C@H](O)CC2CC(=O)NC(=O)C2)C(=O)[C@@H](C)C1 [cycloheximide]
TF-VIIa signaling (TF-VIIa signaling): prevented TF-VIIa signaling
